The assay deals with T1, TACE (ADAM17) (Homo sapiens, UniProt P78536).
T1 construct: made in house; host or cells: mammalian cells or insect cells
The assay can be described thus: TACE (ADAM17) inhibition test. The following applies: fluorescent synthetic substrate, 37° C. for 1.5 hours; read-out: TACE IC50. In kind it is biochemical. From the text: The nucleotide sequence of TACE has been reported by Moss et al. (Moss, M. L. et al., Nature 1997, vol. 385, pp. 733-736). Based on this information, the cDNA of TACE was obtained according to the prescribed method from THP-1 cells or the like, and then incorporated the cDNA into an expression vector. Next, this vector was transformed into mammalian cells or insect cells, and TACE protein was expressed. The TACE protein was isolated, and used as an enzyme. Further, a fluorescent synthetic substrate Nma(N-methylanthranilic acid)-Leu-Ala-Gln-Ala-Val-Arg-Ser-Ser-Lys(Dnp(dinitrophenyl))-D-Arg-NH2 including the TACE-cleaved sequence of a membrane-bound TNF was used as a substrate. The enzyme reaction was carried out by adding 1.8 μL of a solution of the test substance to 90 μL of a fluorescent synthetic substrate prepared with an assay buffer B (50 mM tris-hydrochloric acid buffer (pH 7.5) including 200 mM sodium chloride, 5 mM calcium chloride, 10 μM zinc sulfate, and 0.05% PLURONIC F-68), then mixing 90 μL of a TACE enzyme solution prepared with an assay buffer A (50 mM tris-hydrochloric acid buffer (pH 7.5) including 200 mM sodium chloride, 5 mM calcium chloride, 10 μM zinc sulfate, and 2 mg/mL bovine serum albumin) and reacting at 37° C. for 1.5 hours. Enzyme activity was then determined by measuring with a fluorescence intensity meter (Labsystems, Fluoroskan Ascent) at an excitation wavelength of 355 nm and a measurement wavelength of 460 nm. The 50% inhibitory concentration (IC50) of the test substances was calculated by comparing enzyme activity in the presence and the absence of the test substance to determine the inhibition rate. Further, test substances having an IC50 strength of less than 100 nM were evaluated as “A”, and test substances having an IC50 strength of 100 nM or more were evaluated as “B”.

T1 sequence (P78536 215-824): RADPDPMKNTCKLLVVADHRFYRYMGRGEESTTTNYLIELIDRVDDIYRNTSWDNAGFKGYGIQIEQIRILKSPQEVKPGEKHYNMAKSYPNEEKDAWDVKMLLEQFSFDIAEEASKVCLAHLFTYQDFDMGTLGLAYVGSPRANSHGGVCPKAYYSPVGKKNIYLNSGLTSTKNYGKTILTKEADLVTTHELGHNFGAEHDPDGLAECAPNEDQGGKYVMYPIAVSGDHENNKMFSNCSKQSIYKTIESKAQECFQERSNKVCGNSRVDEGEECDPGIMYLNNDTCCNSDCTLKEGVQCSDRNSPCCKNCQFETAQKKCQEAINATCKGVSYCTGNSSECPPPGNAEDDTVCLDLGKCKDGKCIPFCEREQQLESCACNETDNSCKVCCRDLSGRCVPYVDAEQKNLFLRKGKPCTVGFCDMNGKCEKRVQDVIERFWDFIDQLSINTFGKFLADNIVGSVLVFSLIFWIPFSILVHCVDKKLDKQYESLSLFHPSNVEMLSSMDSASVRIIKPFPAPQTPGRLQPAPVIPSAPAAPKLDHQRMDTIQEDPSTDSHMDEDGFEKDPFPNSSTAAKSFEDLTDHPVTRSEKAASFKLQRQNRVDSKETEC

What is called IC50 is the midpoint of a concentration-inhibition curve. On to `O=C1NC(=O)C(Cn2cccc(Cl)c2=O)(c2ccc(F)cc2)N1` (racemic) [Compound I-136], for which the IC50 was less than 0.1 µM.

`N#Cc1ccc(C2(Cn3cccc(Cl)c3=O)NC(=O)NC2=O)cc1` (racemic) [Compound I-138]: the IC50 was less than 0.1 µM.

On to `Cc1cccn(CC2(c3ccc(F)cc3F)NC(=O)NC2=O)c1=O` (racemic) [Compound I-61], for which the IC50 was no less than 0.1 µM.

As to `Cc1cccn(CC2(c3ccccc3OCc3ccccc3)NC(=O)NC2=O)c1=O` (racemic) [Compound I-68], the IC50 was no less than 0.1 µM.

Regarding `Cc1cccn(CC2(c3ccc(C#Cc4ccccc4)cc3)NC(=O)NC2=O)c1=O` (racemic) [Compound I-106], the half-maximal inhibitory concentration (IC50) was less than 0.1 µM.

In the case of `Cc1ccccc1Oc1ccc(C2(Cn3cccc(C)c3=O)NC(=O)NC2=O)cc1` (racemic) [Compound I-35, 5-[(3-methyl-2-oxopyridin-1(2H)-yl)methyl]-5-[4-(o-tolyloxy)phenyl]imidazolidine-2,4-dione], the IC50 is less than 0.1 µM.

Consider `Cc1cccn(CC2(c3ccc(OCc4ccc(F)cc4)cc3)NC(=O)NC2=O)c1=O` (racemic) [Compound I-88], for which the IC50 was less than 0.1 µM.

As for `O=C1NC(=O)C(Cn2cccc(CO)c2=O)(c2ccc(Cc3ccccc3)cc2)N1` (racemic) [Compound I-151], the IC50 was no less than 0.1 µM.

On to `O=C1NC(=O)C(Cn2cccc(F)c2=O)(c2ccccc2)N1` (racemic) [Compound I-132], for which the IC50 is less than 0.1 µM.

`Cc1cccn(CC2(c3cccc(OCc4ccccc4)c3)NC(=O)NC2=O)c1=O` (racemic) [Compound I-58]: the IC50 is less than 0.1 µM.

On to `Cc1cccn(CC2(c3ccc(C(C)C)cc3)NC(=O)NC2=O)c1=O` (racemic) [Compound I-117], for which the IC50 was less than 0.1 µM.

As for `Cc1cccn(CC2(c3ccc4c(c3)CCCC4)NC(=O)NC2=O)c1=O` (racemic) [Compound I-77], the IC50 is less than 0.1 µM.

With `COc1ccc(C2(Cn3cccc(C(F)(F)F)c3=O)NC(=O)NC2=O)cc1` (racemic) [Compound I-141], the IC50 is less than 0.1 µM.

With `CCc1ccc(C2(Cn3cccc(C)c3=O)NC(=O)NC2=O)cc1` (racemic) [Compound I-116], the IC50 is less than 0.1 µM.

Turning to `COc1ccc(C2(Cn3cccc(C)c3=O)NC(=O)NC2=O)cc1OC` (racemic) [Compound I-16, 5-(3,4-dimethoxyphenyl)-5-[(3-methyl-2-oxopyridin-1(2H)-yl)methyl]imidazolidine-2,4-dione], the IC50 is less than 0.1 µM.

For the compound `Cc1cccn(CC2(c3ccc(Oc4cccc(C(F)(F)F)c4)cc3)NC(=O)NC2=O)c1=O` (racemic) [Compound I-100], the IC50 is less than 0.1 µM.

On to `Cc1cccn(CC2(c3cccc(-c4ccccc4)c3)NC(=O)NC2=O)c1=O` (racemic) [Compound I-96], for which the IC50 is less than 0.1 µM.

With `Cc1cccn(CC2(c3ccc(Oc4ccc(F)c(F)c4)cc3)NC(=O)NC2=O)c1=O` (racemic) [Compound I-98], the IC50 is less than 0.1 µM.

Take `COc1ccc(-c2ccc(C3(Cn4cccc(C)c4=O)NC(=O)NC3=O)cc2)cc1` (racemic) [Compound I-72]: the IC50 was less than 0.1 µM.

On to `Cc1cccn(CC2(c3ccc(C4CCCCC4)cc3)NC(=O)NC2=O)c1=O` (racemic) [Compound I-66], for which the IC50 is less than 0.1 µM.

For `COc1ccc(C2(Cn3cccc(Br)c3=O)NC(=O)NC2=O)cc1` (racemic) [Compound I-52, 5-[(3-bromo-2-oxopyridin-1(2H)-yl)methyl]-5-(4-methoxyphenyl)imidazolidine-2,4-dione], the IC50 was less than 0.1 µM.

As for `Cc1cc(C2(Cn3cccc(C)c3=O)NC(=O)NC2=O)ccc1F` (racemic) [Compound I-30, 5-(4-fluoro-3-methylphenyl)-5-[(3-methyl-2-oxopyridin-1(2H)-yl)methyl]imidazolidine-2,4-dione], the IC50 is less than 0.1 µM.

For `COc1ccccc1Oc1ccc(C2(Cn3cccc(C)c3=O)NC(=O)NC2=O)cc1F` (racemic) [Compound I-114], the IC50 was less than 0.1 µM.

As to `COc1cc(F)ccc1C1(Cn2cccc(C)c2=O)NC(=O)NC1=O` (racemic) [Compound I-21, 5-(4-fluoro-2-methoxyphenyl)-5-[(3-methyl-2-oxopyridin-1(2H)-yl)methyl]imidazolidine-2,4-dione], the IC50 is less than 0.1 µM.

In the case of `Cc1cccn(CC2(c3ccc(Oc4ccccc4F)cc3)NC(=O)NC2=O)c1=O` (racemic) [Compound I-86], the IC50 is less than 0.1 µM.

On to `Cc1cccn(CC2(c3ccc(CCc4ccccn4)cc3)NC(=O)NC2=O)c1=O` (racemic) [Compound I-115], for which the IC50 was less than 0.1 µM.

With `Cc1cccn(CC2(c3ccc(OC4C=CCCC4)cc3)NC(=O)NC2=O)c1=O` (racemic) [Compound I-36, 5-[4-(cyclohex-2-en-1-yloxy)phenyl]-5-[(3-methyl-2-oxopyridin-1(2H)-yl)methyl]imidazolidine-2,4-dione], the IC50 is less than 0.1 µM.

Turning to `Cc1cccn(CC2(c3ccc(OC(F)F)cc3)NC(=O)NC2=O)c1=O` (racemic) [Compound I-78], the IC50 was less than 0.1 µM.

Consider `Cc1cccn(CC2(c3ccc(Oc4ccccc4F)c(F)c3)NC(=O)NC2=O)c1=O` (racemic) [Compound I-104], for which the IC50 is less than 0.1 µM.

Consider `Cc1cccn(CC2(c3ccc(Oc4ccccc4)c(Cl)c3)NC(=O)NC2=O)c1=O` (racemic) [Compound I-123], for which the IC50 was less than 0.1 µM.

Take `Cc1cccn(CC2(c3ccc4c(c3)OCO4)NC(=O)NC2=O)c1=O` (racemic) [Compound I-65]: the IC50 was less than 0.1 µM.

As for `Cc1cccn(CC2(c3ccc(Oc4ccccc4)cc3)NC(=O)NC2=O)c1=O` (racemic) [Compound I-9, 5-[(3-methyl-2-oxopyridin-1(2H)-yl)methyl]-5-(4-phenoxyphenyl)imidazolidine-2,4-dione], the IC50 was less than 0.1 µM.

For `Cc1cccn(CC2(c3ccc(S(C)(=O)=O)cc3)NC(=O)NC2=O)c1=O` (racemic) [Compound I-25, 5-[(3-methyl-2-oxopyridin-1(2H)-yl)methyl]-5-[4-(methylsulfonyl)phenyl]imidazolidine-2,4-dione], the IC50 was less than 0.1 µM.

Consider `Cc1cccn(CC2(c3cccc(O)c3)NC(=O)NC2=O)c1=O` (racemic) [Compound I-54, 5-(3-hydroxyphenyl)-5-[(3-methyl-2-oxopyridin-1(2H)-yl)methyl]imidazolidine-2,4-dione], for which the IC50 is no less than 0.1 µM.

Consider `Cc1cccn(CC2(c3cccc(C#CC(C)(C)C)c3)NC(=O)NC2=O)c1=O` (racemic) [Compound I-63], for which the IC50 was no less than 0.1 µM.

As to `O=C1NC(=O)C(Cn2cccc(F)c2=O)(c2ccc(-c3ccccc3)cc2)N1` (racemic) [Compound I-49, 5-([1,1′-biphenyl]-4-yl)-5-[(3-fluoro-2-oxopyridin-1(2H)-yl)methyl]imidazolidine-2,4-dione], the IC50 is less than 0.1 µM.

In the case of `Cc1cccn(CC2(c3cccc(-c4ccncc4)c3)NC(=O)NC2=O)c1=O` (racemic) [Compound I-95], the IC50 is less than 0.1 µM.

For the compound `Cc1cccn(CC2(c3ccc(Sc4ccccc4)cc3)NC(=O)NC2=O)c1=O` (racemic) [Compound I-102], the IC50 was less than 0.1 µM.

As to `COc1cccc(Oc2ccc(C3(Cn4cccc(C)c4=O)NC(=O)NC3=O)cc2)c1` (racemic) [Compound I-83], the IC50 was less than 0.1 µM.

For the origin of these results see patent US20160168540A1, “COMPOSITION FOR MAINTAINING PLATELET FUNCTION” (KYOTO UNIVERSITY, priority 2013, published 2016).
